Experiments:
[1] = system: HCV GT 1a replicon; test: HCV replicon assay, stable GT 1a replicon (Renilla luciferase); format: cell-based; details: Hepatitis C virus, GT1A; HCV GT 1a replicon, 72 h; read-out: EC50 1a
Description: The activity of compounds was determined against HCV replicons representing genotypes (GT) 1a, 1b, 2a, and 3a. To generate stable Huh-7.5-based cell lines, HCV replicons were engineered to express the Renilla luciferase reporter (hRluc) fused to the neomycin phosphotransferase (Neo) gene. GT2a and GT3a HCV replicons were based on the JFH-1 subgenomic replicon (Kato et al. 2003 Gastroenterology, 125:1808-1817), in which the NS5A gene was replaced with that of strains J6 and S52 (GT2a and G3a, respectively). The activity of compounds against GT1a replicons encoding NS5A mutations (M28T, Q30R, L31M, Y93C, and Y93H) was also determined in a transient replication assay. The parental GT1a and GT2a replicons (pH/SG-Neo(L+I) and pSG-Neo-JFH1, respectively) were licensed from Apath LLC (Saint Louis, Mo.). The parental GT 1b replicon (pFKi389lucubineo_3_3′_ET) was licensed from ReBLikon GmbH (Germany). HCV replicons were constructed by standard molecular biology techniques described below. All replicon constructs were verified by restriction enzyme digestion and DNA sequencing.
pH/SG-Neo(L+I) was modified to add the firefly luciferase reporter gene and additional adaptive mutations by replacing the pH/SG-Neo(L+I) NS3-NS5A coding region with the corresponding sequence of pH77-S, creating pH/SG-lucubineo-H77S as described (Borawski J et al. 2009, J Virol 83: 10058-10074). Subsequently, the firefly luciferase-Neo cassette was replaced with the hRluc-Neo cassette. To create a unique cloning site, the NotI restriction site in NS5B was removed using QuickChange II XL Site-Directed Mutagenesis Kit (Agilent) and the following primers: NotI KO Fwd 5′-CTCAAACTCACTCCAATAGCTGCCGCTGGCCGGCTGGAC-3′(G→T mutation removing NotI site underlined) (SEQ. ID No. 1) and NotI KO Rev 5′-GTCCAGCGGGCCAGCGGCAGCTATTGGAGTGAGTTTGAG-3′(C→A mutation removing NotI site underlined) (SEQ. ID No. 2). The resulting vector, pH/SG-lucubineo-H775-NotIKO, was sequenced to confirm the NS5B gene. The hRluc-Neo cassette was PCR amplified from pF9 cytomegalovirus (CMV) hRluc-Neo Flexi(R) (Promega) using Accuprime Super Mix II (Invitrogen) and the following primers, which introduce restriction sites: […]
The amplification product was subcloned into pCR2.1-TOPO (Invitrogen). The resulting plasmid was digested with AscI and NotI, and the excised hRluc-Neo fragment was ligated using the Promega Rapid Ligation Kit (Promega) into pH/SG-lucubineo-H775-NotIKO digested with the same enzymes.
Stable HCV replicon cell lines were grown in complete media (Dulbecco's modified Eagle medium [DMEM], 2 mM L-glutamine, 0.1 mM essential amino acids, 1 mM sodium pyruvate, 10% heat inactivated fetal bovine serum) with the addition 500 μg/ml […] (G418). Huh7-lunet cells were maintained in the same medium without the addition of G418. Cells were routinely passaged at a dilution of 1:4 two times a week. The assay medium for both luciferase reporter HCV replicon and cytotoxicity assays used phenol red-free DMEM and lacked G418. For each stable replicon assay, a sixteen point half-log dilution series of compound was stamped (0.5 ul compound per well) into three replica 384-well plates, to which cells were added directly (4000 cells/well). For the transient replication assay, Huh7-lunet cells in ice-cold phosphate buffered saline (PBS) were electroporated (BioRad electroporator; 950 uF, 270V) with 10 ug purified in vitro transcribed HCV replicon RNA, followed by resuspension in complete media and plating (8000 cells/well) into compound stamped 384-well plates. Luciferase activity of compound-treated cells was measured relative to DMSO-treated cells after 72 h incubation using RENILLA-GLO™ Luciferase Assay (Promega). Cytotoxicity (CC50) in the GT1b replicon cell line was analyzed using CELL TITER-GLO™ (Promega). […]

[2] = system: GT1a replicon encoding NS5A mutation Y93H; test: Transient replication assay, GT1a replicon with NS5A mutation Y93H; format: cell-based; details: Hepatitis C virus, read-out: EC50 1a Y93H

| Compound | EC50 [1] [nM] | EC50 [2] [nM] |
| --- | --- | --- |
| COC(=O)N[C@H](C(=O)N1[C@H](c2nc3ccc4cc(-c5ccc(-c6cnc([C@@H]7C[C@@]8(CCCOC8)CN7C(=O)[C@@H](NC(=O)OC)C7C[C@@H](C)O[C@H](C)C7)[nH]6)cc5)ccc4c3[nH]2)C[C@@H]2CCCC[C@@H]21)C(C)C (stereo in doubt) [Compound 38] | 0.008 | 0.2 |
| COC(=O)N[C@H](C(=O)N1[C@H](c2nc3ccc4cc(-c5ccc(-c6cnc([C@@H]7C[C@@]8(CCCOC8)CN7C(=O)[C@H](NC(=O)OC)C7C[C@@H](C)O[C@H](C)C7)[nH]6)cc5)ccc4c3[nH]2)C[C@@H]2CCCC[C@@H]21)C(C)C (stereo in doubt) [Compound 39] | 0.214 | 213 |
| COC(=O)N[C@H](C(=O)N1C[C@]2(CCCOC2)C[C@H]1c1nc2ccc3cc(-c4ccc(-c5cnc([C@@H]6C[C@H]7C[C@H]7N6C(=O)[C@@H](NC(=O)OC)C(C)C)[nH]5)cc4)ccc3c2[nH]1)C(C)C [Compound 5] | 0.008 | 2 |
| COC(=O)N[C@H](C(=O)N1C[C@]2(CCCOC2)C[C@H]1c1nc2ccc3cc(-c4ccc5c(ccc6nc([C@@H]7C[C@H]8C[C@H]8N7C(=O)[C@@H](NC(=O)OC)C(C)C)[nH]c65)c4)ccc3c2[nH]1)C(C)C [Compound 6] | 0.007 | 0.8 |
| COC(=O)N[C@H](C(=O)N1CC2(CC2)C[C@H]1c1nc2ccc3cc(-c4ccc5c(ccc6nc([C@@H]7C[C@@]8(CCCOC8)CN7C(=O)[C@@H](NC(=O)OC)C(C)C)[nH]c65)c4)ccc3c2[nH]1)C(C)C [Compound 7] | 0.009 | 1 |
| COC(=O)N[C@H](C(=O)N1CC2(CC2)C[C@H]1c1ncc(-c2ccc(-c3ccc4c(ccc5nc([C@@H]6C[C@@]7(CCCOC7)CN6C(=O)[C@@H](NC(=O)OC)C(C)C)[nH]c54)c3)cc2)[nH]1)C(C)C [Compound 8] | 0.01 | 4 |
| COC(=O)N[C@H](C(=O)N1C[C@]2(CCCOC2)C[C@H]1c1nc2ccc3cc(-c4ccc5c(ccc6nc([C@@H]7C[C@@H]8CCC[C@@H]8N7C(=O)[C@@H](NC(=O)OC)C(C)C)[nH]c65)c4)ccc3c2[nH]1)C(C)C [Compound 9] | 0.007 | 2 |
| COC(=O)N[C@H](C(=O)N1C[C@]2(CCCOC2)C[C@H]1c1nc2ccc3cc(-c4ccc(-c5cnc([C@@H]6C[C@@H]7CCC[C@@H]7N6C(=O)[C@@H](NC(=O)OC)C(C)C)[nH]5)cc4)ccc3c2[nH]1)C(C)C [Compound 10] | 0.005 | 4 |
| COC(=O)N[C@H](C(=O)N1C[C@]2(CCCOC2)C[C@H]1c1ncc(-c2ccc(-c3ccc4c(ccc5nc([C@@H]6C[C@@]7(CCCOC7)CN6C(=O)[C@@H](NC(=O)OC)C(C)C)[nH]c54)c3)cc2)[nH]1)C(C)C [Compound 11] | 0.023 | 2 |
| COC(=O)N[C@H](C(=O)N1C[C@]2(CCCOC2)C[C@H]1c1ncc(-c2ccc3cc4cc(-c5cnc([C@@H]6C[C@@H]7CCCC[C@@H]7N6C(=O)[C@@H](NC(=O)OC)C(C)C)[nH]5)ccc4cc3c2)[nH]1)C(C)C [Compound 13] | 0.036 | 9 |
| COC(=O)N[C@H](C(=O)N1C[C@]2(CCCOC2)C[C@H]1c1ncc(-c2ccc3c(c2)COc2cc(-c4cnc([C@@H]5C[C@@H]6CCCC[C@@H]6N5C(=O)[C@@H](NC(=O)OC)C(C)C)[nH]4)ccc2-3)[nH]1)C(C)C [Compound 15] | 0.008 | 5 |
| COC(=O)N[C@H](C(=O)N1C[C@]2(CCCOC2)C[C@H]1c1ncc(-c2ccc(-c3ccc4c(ccc5nc([C@@H]6C[C@@H]7CCC[C@@H]7N6C(=O)[C@@H](NC(=O)OC)C(C)C)[nH]c54)c3)cc2)[nH]1)C(C)C [Compound 16] | 0.009 | 8 |
| COC(=O)N[C@H](C(=O)N1C[C@]2(CCCOC2)C[C@H]1c1ncc(-c2ccc3c(ccc4cc(-c5cnc([C@@H]6C[C@@H]7CCCC[C@@H]7N6C(=O)[C@@H](NC(=O)OC)C(C)C)[nH]5)ccc43)c2)[nH]1)C(C)C [Compound 17] | 0.012 | 5 |
| COC(=O)N[C@H](C(=O)N1C[C@]2(CCCOC2)C[C@H]1c1ncc(-c2ccc(-c3ccc4c(ccc5nc([C@@H]6C[C@H]7C[C@H]7N6C(=O)[C@@H](NC(=O)OC)C(C)C)[nH]c54)c3)cc2)[nH]1)C(C)C [Compound 18] | 0.007 | 6 |
| COC(=O)N[C@H](C(=O)N1C[C@]2(CCCOC2)C[C@H]1c1ncc(-c2ccc(-c3ccc4c(ccc5nc([C@@H]6C[C@@H]7C[C@@H]7N6C(=O)[C@@H](NC(=O)OC)C(C)C)[nH]c54)c3)cc2)[nH]1)C(C)C [Compound 20] | 0.014 | 18 |
| COC(=O)N[C@H](C(=O)N1C[C@]2(CCCOC2)C[C@H]1c1nc2ccc3cc(-c4ccc5c(ccc6nc([C@@H]7C[C@@H]8C[C@@H]8N7C(=O)[C@@H](NC(=O)OC)C(C)C)[nH]c65)c4)ccc3c2[nH]1)C(C)C [Compound 21] | 0.02 | 4 |
| COC(=O)N[C@H](C(=O)N1C[C@]2(CCCOC2)C[C@H]1c1nc2ccc3cc(-c4ccc(-c5cnc([C@@H]6C[C@@H]7C[C@@H]7N6C(=O)[C@@H](NC(=O)OC)C(C)C)[nH]5)cc4)ccc3c2[nH]1)C(C)C [Compound 22] | 0.009 | 6 |
| COC(=O)N[C@H](C(=O)N1C[C@]2(CCCOC2)C[C@H]1c1nc2ccc3cc(-c4ccc5c(ccc6nc([C@@H]7C[C@@H]8CCCC[C@@H]8N7C(=O)[C@@H](NC(=O)OC)C(C)C)[nH]c65)c4)ccc3c2[nH]1)C(C)C [Compound 23] | 0.012 | 1 |
| COC(=O)N[C@H](C(=O)N1C[C@]2(CCCOC2)C[C@H]1c1nc2ccc3cc(-c4ccc(-c5cnc([C@@H]6C[C@@H]7CCCC[C@@H]7N6C(=O)[C@@H](NC(=O)OC)C(C)C)[nH]5)cc4)ccc3c2[nH]1)C(C)C [Compound 24] | 0.007 | 3 |
| COC(=O)N[C@H](C(=O)N1CCC[C@H]1c1nc2c([nH]1)-c1ccc(-c3ccc4c(ccc5nc([C@@H]6C[C@@]7(CCCOC7)CN6C(=O)[C@@H](NC(=O)OC)C(C)C)[nH]c54)c3)cc1OC2)C(C)C [Compound 25] | 0.027 | 7 |
| COC(=O)N[C@H](C(=O)N1C[C@]2(CCOC2)C[C@H]1c1ncc(-c2ccc(-c3ccc4c(ccc5nc([C@@H]6CCCN6C(=O)[C@@H](NC(=O)OC)C(C)C)[nH]c54)c3)cc2)[nH]1)C(C)C [Compound 26] | 0.025 | 42 |
| COC(=O)N[C@H](C(=O)N1C[C@@]2(CCCOC2)C[C@H]1c1ncc(-c2ccc(-c3ccc4c(ccc5nc([C@@H]6CCCN6C(=O)[C@@H](NC(=O)OC)C(C)C)[nH]c54)c3)cc2)[nH]1)C(C)C [Compound 27] | 0.013 | 1 |
| COC(=O)N[C@H](C(=O)N1C[C@]2(CCCOC2)C[C@H]1c1ncc(-c2ccc(-c3ccc4c(ccc5nc([C@@H]6CC7(CC7)CN6C(=O)[C@@H](NC(=O)OC)C(C)C)[nH]c54)c3)cc2)[nH]1)C(C)C [Compound 28] | 0.011 | 16 |
| COC(=O)N[C@H](C(=O)N1C[C@]2(CCCOC2)C[C@H]1c1ncc(-c2ccc(-c3ccc4c(ccc5nc([C@@H]6C[C@@H]7CCCC[C@@H]7N6C(=O)[C@@H](NC(=O)OC)C(C)C)[nH]c54)c3)cc2)[nH]1)C(C)C [Compound 29] | 0.006 | 7 |
| COC(=O)N[C@H](C(=O)N1C[C@]2(CCCOC2)C[C@H]1c1ncc(-c2ccc(-c3ccc4c(c3)OCc3nc([C@@H]5CCCN5C(=O)[C@@H](NC(=O)OC)C(C)C)[nH]c3-4)cc2)[nH]1)C(C)C [Compound 30] | 0.05 | 13 |

— US10407445B2, “Hepatitis C virus inhibitors” (ENANTA PHARMACEUTICALS, INC., priority 2013, dated 2019)
